Assays:
U87-MG cells [1] = assay: 5-ALA uptake measured by PpIX fluorescence, single U87-MG culture; type: cell-based, human
Experimental: Experiments were performed to determine the effects of TTFields on uptake of 5-ALA (as measured by PpIX accumulation and its resultant fluorescence) in glioblastoma cells. Because it is difficult to distinguish the margin between tumor and normal cells using the present 5-ALA bioassay, the measurement of PpIX fluorescence was used to address this issue. Investigations were run to determine whether permeation of 5-ALA through the cellular membrane and into the glioblastoma cells could be increased with TTFields exposure. U87-MG cells were exposed or unexposed to TTFields, each for durations of 6-24 h.
All monovariant statistical comparisons between no TTFields vs. TTFields samples done by Student's t-test for n=3 experiments per time point.

U87-MG/eGFP-fLuc cells [2] = assay: Reversibility of the TTFields effect on uptake (BLI, PpIX, Dextran-FITC fluorescence); type: cell-based, human; settings: TTFields 24 h vs. none vs. TTFields 24 h followed by 24 h no TTFields
Excerpt: All experimental conditions were done in triplicate.

[3] = tested on: U87-MG GBM on PCS-201 fibroblast co-cultures; assay: 5-ALA uptake (PpIX fluorescence) in U87-MG GBM on PCS-201 fibroblast co-cultures
U87-MG cells [4] = assay: Timing of permeability to 7-AAD after cessation of the field, flow cytometry; type: cell-based, human; settings: 300 kHz, 1.62 V/cm RMS, 24 h; 7-AAD added 15 minutes prior to cessation of the field
Experimental: FIG. 7D depicts the results of an experiment to test how quickly the permeability drops back down after cessation of the alternating electric fields. More specifically, 7-Aminoactinomycin D (7-AAD) is a fluorescent chemical compound with a strong affinity for DNA. […] 7-AAD was introduced into samples at five different times: 15 minutes prior to the cessation of the alternating electric field; immediately after cessation of the alternating electric field; and 15, 30, and 60 minutes after cessation of the alternating electric field. In each case, the cells were incubated with 7-AAD for 30 minutes after introduction of the 7-AAD, followed by flow cytometry analysis of the percentage of cells with increased accumulation of the fluorescent 7-AAD for each of the different timings.

[5] = tested on: MDA-MB-435 human melanoma cell line cells; assay: Permeability to 7-AAD under alternating electric fields, flow cytometry; type: cell-based; settings: 150 kHz, 24 h
Experimental: After this 15 minute period, alternating electric field application was terminated and the cells were incubated at room temperature for an additional 15 minutes.
After this 24 hour period, the alternating electric fields were turned off for 15 minutes, after which the 7-AAD was added. After waiting an additional 15 minutes, the percentage of cells with increased accumulation of the fluorescent 7-AAD was determined using flow cytometry.

U87-MG/eGFP-fLuc cells [6] = settings: TTFields 4 V/cm, 200 kHz, 0.5-24 h vs. no TTFields
Experimental: U87-MG/eGFP-fLuc cells were seeded on Thermanox glass coverslips, allowed to settle and grow, and then subjected to either TTFields or no TTFields.
The coverslips were transferred to a ceramic dish of the Inovitro™ system, which in turn was mounted onto Inovitro™ base plates (Novocure Ltd., Haifa, Israel). Tumor treating fields at 200 kHz (1-4 V/cm) were applied through an Inovitro™ power generator. Incubator ambient temperatures spanned 20-27° C. with a target temperature of 37° C. in the ceramic dishes upon application of the TTFields. Duration of TTFields exposure lasted anywhere from 0.5 to 72 h, after which coverslips were removed and processed for the appropriate bioassays (see below). For reversibility experiments, the TTFields-exposed coverslips were transferred to a regular incubator without TTFields exposure for 24 h (off TTFields period to assess for reversibility of the TTFields effect on cell membrane permeability) prior to processing for the appropriate bioassays. Culture media were exchanged manually every 24 h throughout the experiments to account for evaporation. Corresponding control experiments (no TTFields) were done by placing equivalent coverslips within 6-well or 12-well plates into a conventional humidified tissue culture incubator (37° C., 95% air/5% CO2) and cells grown in parallel with the TTFields-exposed coverslips. […]

GBM39/Luc cells = assay: Drug sensitivity and synergy with TTFields; type: cell-based, human; settings: TTFields for 3 days vs. no TTFields
pcGBM2/GFP-Luc cells = settings: TTFields for 3 days vs. no TTFields
GBM39 cells = assay: Drug sensitivity with TTFields; type: cell-based, human; settings: TTFields for 3 days vs. no TTFields
U87-MG/GFP-Luc cells = assay: Drug sensitivity and synergy with TTFields; type: cell-based, human; settings: TTFields for 3 days vs. no TTFields
glioblastoma patients = assay: Survival of glioblastoma patients, TTFields plus temozolomide vs. temozolomide alone; type: in vivo, human; settings: after 1 year of TTFields exposure
Excerpt: The treatment of glioblastoma (GBM) using alternating electric fields is a novel, validated therapy that has become an additional modality (after surgery chemoradiation and chemotherapy) for anti-cancer treatments. Intermediate frequency alternating electric fields (100-500 kHz) have been studied in detail. […] In the context of treating tumors, alternating electric fields at these frequencies are often referred to as “tumor treating fields” or “TTFields.”
Recurrence of GBM is inevitable and the median time to first recurrence despite standard therapy is approximately 7 months. […] TTFields compliance (≥75% vs. <75%) was an independent predictor of overall survival in the retrospective analysis of the full EF-14 trial dataset and the duration of use of TTFields was also found to affect overall survival. […] Namely, a correlation between the length of TTFields exposure and the duration of its effect on cell membrane permeability after cessation of TTFields was observed. At lengths of TTFields exposure of 0.5-3 h, the duration in BLI augmentation (compared to no TTFields conditions) lasted about 5 min. However, at TTFields exposures of 12-25 h, this difference in BLI between TTFields and no TTFields conditions lasted for more than 20 min.

U87-MG/eGFP-fLuc cells [7] = assay: Annexin-V-APC binding (apoptosis) by fluorescence microscopy; type: cell-based, human; settings: 21 μM, TTFields-unexposed
Experimental: To test if the imposition of TTFields affects cell membrane properties, and thus membrane permeability, the effect of TTFields on the behavior of fluorescently tagged reagents that bind to the cellular membrane was determined. Initially, the impact of TTFields on the binding of Annexin-V-APC to the membrane of U87-MG/eGFP-fLuc cells was measured. Annexin-V-APC binding is a signature of early apoptosis which is characterized by ruffling of the membrane.

human glioblastoma cells = assay: Growth inhibition by TTFields in conjunction with Withaferin A; type: cell-based
Excerpt: In this figure, 5-ALA=5-aminolevulinic acid; Ethidium D=ethidium bromide; and FITC=fluorescein isothiocyanate.

KR158B = assay: Bioluminescence of Renilla luciferase-expressing astrocytoma cells, TTFields vs. no TTFields; type: cell-based, murine
Experimental: Studies were then performed that validate the hypothesis.
Renilla luciferase activity is not dependent upon ATP and magnesium (as opposed to firefly luciferase). Thus, it is believed that the induction of bioluminescence by TTFields was not due to alterations in endogenous pools of ATP.

MES-SA cells = assay: Intracellular accumulation of doxorubicin under 150 kHz alternating electric fields; type: cell-based; settings: 10 μM, 1 h, 1.62 V/cm RMS, 24 hours vs. no field
[8] = tested on: MDA-MB-435 cells, wild type; assay: Intracellular accumulation of doxorubicin under alternating electric fields; type: cell-based, human; settings: 10 μM, 1 h; 150 kHz, 1.62 V/cm vs. no field
MDA-MB-235 cells = assay: Drug sensitivity and synergy with TTFields; type: cell-based; settings: TTFields for 3 days vs. no TTFields
[9] = tested on: MDA-MB-435 cells, doxorubicin resistant; assay: Intracellular accumulation of doxorubicin under alternating electric fields; type: cell-based, human; settings: 10 μM, 1 h; 150 kHz, 1.62 V/cm vs. no field
MCF-7 cells, wild type = assay: Intracellular accumulation of mitoxantrone under alternating electric fields; type: cell-based, human; settings: 2 μM, 1 h; 150 kHz, 1.62 V/cm vs. no field
Experimental: (§1) The intracellular accumulation of mitoxantrone was then measured.

[10] = tested on: MCF-7 cells, mitoxantrone resistant; assay: as above; type: cell-based, human; settings: 2 μM, 1 h; 150 kHz, 1.62 V/cm vs. no field
Experimental: as §1

firefly luciferase = biological target: T1, firefly luciferase (Photinus pyralis, UniProt P08659); assay: Activity of purified firefly luciferase exposed to TTFields; type: biochemical; settings: TTFields vs. no TTFields, p<0.01
T1 construct: purchased Sigma Aldrich Inc SRE0045-2MG
T1 sequence (P08659 whole entry): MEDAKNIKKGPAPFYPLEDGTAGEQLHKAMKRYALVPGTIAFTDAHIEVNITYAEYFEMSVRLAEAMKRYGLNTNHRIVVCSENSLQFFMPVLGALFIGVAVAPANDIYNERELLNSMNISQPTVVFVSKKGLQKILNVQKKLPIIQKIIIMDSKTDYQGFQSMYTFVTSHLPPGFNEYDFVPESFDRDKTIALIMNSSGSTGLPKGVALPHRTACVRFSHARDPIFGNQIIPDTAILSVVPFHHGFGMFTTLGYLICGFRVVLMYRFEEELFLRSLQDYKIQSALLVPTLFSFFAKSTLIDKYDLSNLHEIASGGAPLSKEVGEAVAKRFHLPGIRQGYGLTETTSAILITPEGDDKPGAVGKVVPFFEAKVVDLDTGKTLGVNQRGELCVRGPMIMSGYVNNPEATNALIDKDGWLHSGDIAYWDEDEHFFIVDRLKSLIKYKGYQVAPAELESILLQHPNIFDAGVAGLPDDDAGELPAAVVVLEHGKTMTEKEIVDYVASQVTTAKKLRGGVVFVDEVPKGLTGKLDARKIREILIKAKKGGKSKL

**Q.** For `NCC(=O)CCC(=O)O` [5-ALA, 5-aminolevulinic acid], which “uptake (PpIX fluorescence)” value (U87-MG cells [1]; 6 h TTFields (200 kHz) vs. no TTFields, p=0.047) is on record?
**A.** Its value is “significantly increased uptake”.

**Q.** What about the “uptake (PpIX fluorescence)” value (U87-MG cells [1]; 24 h TTFields (200 kHz) vs. no TTFields, p=0.011) of the same compound?
**A.** The value was “increase was maintained”.

**Q.** What about the “uptake with field and after cessation of the field” value (U87-MG/eGFP-fLuc cells [2]) of the same compound?
**A.** Its value is “reversibly increase uptake”.

**Q.** What about the “rate of PpIX fluorescence intensity increase” value ([3]; TTFields 2, 6, 24 h vs. unexposed co-cultures, p<0.001) of the same compound?
**A.** Its value is “significantly augmented”.

**Q.** And the “tumor to normal cell ratio for PpIX fluorescence” value ([3]; TTFields vs. no TTFields)?
**A.** The value was “significantly enhances”.

**Q.** `Cc1c2oc3c(C)c(N)cc(C(=O)N[C@@H]4C(=O)N[C@H](C(C)C)C(=O)N5CCC[C@H]5C(=O)N(C)CC(=O)N(C)[C@@H](C(C)C)C(=O)O[C@@H]4C)c3nc-2c(C(=O)N[C@@H]2C(=O)N[C@H](C(C)C)C(=O)N3CCC[C@H]3C(=O)N(C)CC(=O)N(C)[C@@H](C(C)C)C(=O)O[C@@H]2C)c(N)c1=O` [7-AAD, 7-Aminoactinomycin D] was tested. Which “percentage of cells with increased accumulation of 7-AAD” value (U87-MG cells [4]) did it give?
**A.** The value was “significant increase in accumulation”.

**Q.** And the “percentage of cells with increased accumulation of 7-AAD” value ([5]; 1.62V/cm, 7-AAD added 15 minutes after fields turned off)?
**A.** The value was about 20%.

**Q.** And the “percentage of cells with increased accumulation of 7-AAD” value ([5]; 1.62 V/cm, 7-AAD added for the last 15 minutes of the field)?
**A.** Its value is about 66%.

**Q.** With `O=C(O)[C@H]1CSC(c2nc3ccc(O)cc3s2)=N1` [D-luciferin] as the compound, how does the “uptake with field and after cessation of the field” value (U87-MG/eGFP-fLuc cells [2]) read?
**A.** The value was “reversibly increase uptake”.

**Q.** What about the “permeation of the luciferase substrate through the plasma membrane (bioluminescence)” value (U87-MG/eGFP-fLuc cells [6]) of the same compound?
**A.** The value was “increased permeation”.

**Q.** With `CCc1c2c(nc3ccc(OC(=O)N4CCC(N5CCCCC5)CC4)cc13)-c1cc3c(c(=O)n1C2)COC(=O)[C@]3(O)CC` [Irinotecan] as the compound, how does the “sensitivity of cells to the drug” value (GBM39/Luc cells) read?
**A.** The value was “improves the sensitivity”.

**Q.** How did the “sensitivity of cells to the drug” value (pcGBM2/GFP-Luc cells) turn out when `O=NN(CCCl)C(=O)NC1CCCCC1` [Lomustine] was run?
**A.** Its value is “improves the sensitivity”.

**Q.** What about the “sensitivity of cells to the drug” value (GBM39 cells) of the same compound?
**A.** The value was “improves the sensitivity”.

**Q.** What about the “sensitivity of cells to the drug” value (U87-MG/GFP-Luc cells) of the same compound?
**A.** The value was “improves the sensitivity”.

**Q.** For `Cn1nnc2c(C(N)=O)ncn2c1=O` [Temozolomide], which “percent increase in overall survival” value (glioblastoma patients) is on record?
**A.** Its value is 32%.

**Q.** With `CC1=C(CO)C(=O)O[C@@H]([C@@H](C)[C@H]2CC[C@H]3[C@@H]4C[C@H]5O[C@]56[C@@H](O)C=CC(=O)[C@]6(C)[C@H]4CC[C@]23C)C1` [Withaferin A] as the compound, how does the “Annexin-V-APC binding (positive control for apoptosis)” value (U87-MG/eGFP-fLuc cells [7]) read?
**A.** Its value is “could be visualized”.

**Q.** What about the “growth inhibition in conjunction with TTFields” value (human glioblastoma cells) of the same compound?
**A.** Its value is “synergistically inhibited the growth”.

**Q.** Which “permeation of the luciferase substrate through the plasma membrane (bioluminescence)” value (KR158B) does the source give for `Oc1ccc(Cc2nc3c(Cc4ccccc4)nc(-c4ccc(O)cc4)cn3c2O)cc1` [coelenterazine] here?
**A.** The value was “increased permeation”.

**Q.** What does the source list for `COc1cccc2c1C(=O)c1c(O)c3c(c(O)c1C2=O)C[C@@](O)(C(=O)CO)C[C@@H]3O[C@H]1C[C@H](N)[C@H](O)[C@H](C)O1` [doxorubicin]?
**A.** increase of intracellular accumulation (MES-SA cells): more than 2 ×; intracellular accumulation [8]: increased; sensitivity of cells to the drug (MDA-MB-235 cells): improves the sensitivity; intracellular accumulation [9]: increased

**Q.** With `O=C1c2c(O)ccc(O)c2C(=O)c2c(NCCNCCO)ccc(NCCNCCO)c21` [mitoxantrone] as the compound, how does the intracellular accumulation (MCF-7 cells, wild type) read?
**A.** Its intracellular accumulation is “increased”.

**Q.** What about the intracellular accumulation [10] of the same compound?
**A.** Its intracellular accumulation is “increased”.

**Q.** For “firefly luciferase: purified firefly luciferase (SRE0045-2MG) purchased from Sigma Aldrich”, which “activity of purified firefly luciferase” value (firefly luciferase) is on record?
**A.** Its value is “significantly decreased activity”.

— patent publication US11529511B2, “Using alternating electric fields to increase cell membrane permeability” (The Board of Trustees of the Leland Stanford Junior …, priority 2018, dated 2022)
